Measurements as given in patent US6316413A (Fournier Industrie et Sante, priority 1996, dated 2001).

Experiments:
[1] = biological target: T1, human B2 receptor cloned and transfected in a stable manner into a CHO cell line (Homo sapiens, UniProt P30411); experiment: Binding to the cloned human bradykinin B2 receptor (CHO cell line); conditions: affinity for cloned human B2 receptor stably transfected into CHO cells
T1 construct: expressed in transfected cells
T1 sequence (P30411 1-391): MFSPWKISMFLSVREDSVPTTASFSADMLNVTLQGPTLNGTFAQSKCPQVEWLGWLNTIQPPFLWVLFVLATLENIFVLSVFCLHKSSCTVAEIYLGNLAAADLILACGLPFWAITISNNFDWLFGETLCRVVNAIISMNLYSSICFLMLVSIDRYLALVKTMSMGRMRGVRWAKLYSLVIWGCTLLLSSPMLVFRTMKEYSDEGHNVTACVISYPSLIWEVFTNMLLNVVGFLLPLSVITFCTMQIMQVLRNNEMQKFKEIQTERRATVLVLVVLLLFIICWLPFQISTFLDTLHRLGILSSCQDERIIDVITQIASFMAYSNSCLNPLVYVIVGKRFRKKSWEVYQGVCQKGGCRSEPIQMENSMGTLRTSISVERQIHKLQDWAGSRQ

[2] = biological target: T2, bradykinin B2 receptor (segments of human umbilical vein) (Homo sapiens, UniProt P30411); experiment: B2 receptor-dependent contraction of human umbilical vein segments; assay type: cell-based; conditions: calculated from concentrations causing B2 receptor-dependent contraction of human umbilical vein; read-out: pD2 (converted)
T2 construct: determination of a pD2 value on segments of human umbilical vein; from tissue; host or cells: segments of human umbilical vein
T2 sequence (P30411 1-391): T1 sequence (P30411 1-391)

Row | SMILES | Ki [1] [nM] | EC50 [2] [nM]
1 | N=C(N)NCCC[C@@H](N)C(=O)N[C@@H](CCCNC(=N)N)C(=O)N1CCC[C@H]1C(=O)N1C[C@H](O)C[C@H]1C(=O)NCC(=O)N[C@@H](Cc1cccs1)C(=O)N[C@@H](CO)C(=O)N[C@@H]1CSc2ccccc2N(CC(=O)N[C@@H](CCCNC(=N)N)C(=O)O)C1=O [Ex. 1, H-D-Arg-Arg-Pro-4Hyp-Gly-Thi-Ser-DBT(H)-Arg-OH] | 0.7 | 200
2 | N=C(N)NCCC[C@H](NC(=O)CN1C(=O)[C@H](NC(=O)[C@H](CO)NC(=O)[C@H](Cc2cccs2)NC(=O)CNC(=O)[C@@H]2C[C@@H](O)CN2C(=O)[C@@H]2CCCN2C(=O)[C@H](CCCNC(=N)N)NC(=O)[C@@H](N)CCCCN)CSc2ccccc21)C(=O)O [Ex. 2, H-Lys-Arg-Pro-4Hyp-Gly-Thi-Ser-DBT(H)-Arg-OH] | 0.07 | 79.4
3 | N=C(N)NCCC[C@H](NC(=O)CN1C(=O)[C@H](NC(=O)[C@H](CO)NC(=O)[C@H](Cc2ccccc2)NC(=O)CNC(=O)[C@@H]2CCCN2C(=O)[C@@H]2CCCN2C(=O)[C@@H](N)CCCNC(=N)N)CSc2ccccc21)C(=O)O [Ex. 3, H-Arg-Pro-Pro-Gly-Phe-Ser-DBT(M)-Arg-OH] | 12.9 | 
4 | N=C(N)NCCC[C@@H](N)C(=O)N[C@@H](CCCNC(=N)N)C(=O)N1CCC[C@H]1C(=O)N1C[C@H](O)C[C@H]1C(=O)NCC(=O)N[C@@H](Cc1cccs1)C(=O)N[C@@H](CO)C(=O)N[C@@H]1COc2ccccc2N(CC(=O)N[C@@H](CCCNC(=N)N)C(=O)O)C1=O [Ex. 4, H-D-Arg-Arg-Pro-4Hyp-Gly-Thi-Ser-DBO(H)-Arg-OH] | 2.5 | 7940
5 | Cc1ccc2c(c1)SC[C@@H](NC(=O)[C@H](CO)NC(=O)[C@H](Cc1cccs1)NC(=O)CNC(=O)[C@@H]1C[C@@H](O)CN1C(=O)[C@@H]1CCCN1C(=O)[C@H](CCCNC(=N)N)NC(=O)[C@H](N)CCCNC(=N)N)C(=O)N2CC(=O)N[C@@H](CCCNC(=N)N)C(=O)O [Ex. 5, H-D-Arg-Arg-Pro-4Hyp-Gly-Thi-Ser-DBT(CH3)-Arg-OH] | 6 | 56.2
